# Measured values published in US20120196828A1, “SENSITIZATION OF CANCER CELLS TO TREATMENT” (priority 2011, published 2012).
# Several values for one entry are separate records, joined by “and”; a condition that tells them apart may be missing. Identical values can stand only once.
# Key:
# [1] = Body weight, deaths and clinical observations in the BxPC-3 xenograft study; details: for Starting Weight: baseline body weight, female athymic nude mice, BxPC-3 xenograft study
# Method: (§1) All experiments were conducted on female athymic nude mice (Hsd:Athymic Nude-Foxn1nu) supplied by Harlan (Indianapolis, Ind.). Mice were received at four weeks of age, 12-15 grams in weight, and were acclimated for seven days prior to handling. The mice were housed in microisolator cages (Lab Products, Seaford, Del.) and maintained under specific pathogen-free conditions. All procedures were carried out under appropriate institutional guidelines for animal care.
# (§2) Seven days following inoculation, tumors were measured using calipers and tumor weight was calculated using the animal study management software, Study Director V.1.7.54 k (Study Log). See Britten C D, et al. Enhanced antitumor activity of 6-hydroxymethylacylfulvene in combination with irinotecan and 5-fluorouracil in the HT29 human colon tumor xenograft model. Cancer Res 59:1049-1053, 1999. […] Body weights were recorded when the mice were randomized and were taken twice weekly thereafter in conjunction with tumor measurements, on each of Days 1, 4, 8, 11, 15, 18, 22, 26, 30, 33, and 36.
# (§3) The study was terminated when the vehicle control reached an endpoint of 1500 mg, on Day 36.
# [2] = tested on: BxPC-3 Human Pancreas Tumor Xenograft; assay: BxPC-3 human pancreas tumor xenograft model: tumor weight and tumor growth inhibition; type: in vivo, mouse; details: for Day 26 Tumor Weight: mean ± Std Err, treatment administered until Day 26
# Method: Compounds tested in the experiment were as follows. […] A concentration of 4.8 mg/ml was formulated to deliver a 24 mg/kg dose at a 5 ml/kg dose volume when administered subcutaneously. […] Nab-paclitaxel was manufactured by Abraxis BioScience LLC (Bridgewater, N.J.) and diluted in a 0.9% NaCl solution to a concentration of 1.5 mg/ml to deliver 15 mg/kg, in a 10 ml/kg dose volume. All standard agent preparations were made fresh prior to their administration.
# BxPC-3 cells were obtained and prepared as follows. The BxPC-3 pancreas tumor cell line was received from American Type Culture Collection (ATCC, Manassas, Va.). Cultures were maintained in RPMI 1640 medium (Hyclone, Logan, Utah) supplemented with 5% fetal bovine serum. The cells were housed in a 5% CO2 atmosphere. The cultures were expanded in tissue culture flasks at a 1:3 split ratio until a sufficient amount of cells were harvested.
# as §1
# BxPC-3 Human Pancreas Tumor Xenograft Model: Female athymic nude mice per treatment condition were inoculated subcutaneously in the right flank with 0.1 ml of a 50% RPMI 1640/50% Matrigel™ (BD Biosciences, Bedford, Mass.) mixture containing a suspension of BxPC-3 tumor cells (approximately 5×10^6 cells/mouse).
# as §2, §3
# Mean tumor growth inhibition (TGI) was calculated utilizing Formula A below (deaths were not included in the TGI calculations).
# All statistical analyses in the xenograft study were performed with GraphPad Prism® v4 software.
# anti-thrombin III = anti-thrombin III (Homo sapiens, UniProt P01008); details: cited from earlier work
# [3] = total deaths on or before Day 26, N = 10 per group
# [4] = ANOVA with Tukey's Multiple Comparison Test
# [5] = Day 26, group mean, dosing per Table 1
# anti-thrombin III, sequence (P01008 33-464, species assumed): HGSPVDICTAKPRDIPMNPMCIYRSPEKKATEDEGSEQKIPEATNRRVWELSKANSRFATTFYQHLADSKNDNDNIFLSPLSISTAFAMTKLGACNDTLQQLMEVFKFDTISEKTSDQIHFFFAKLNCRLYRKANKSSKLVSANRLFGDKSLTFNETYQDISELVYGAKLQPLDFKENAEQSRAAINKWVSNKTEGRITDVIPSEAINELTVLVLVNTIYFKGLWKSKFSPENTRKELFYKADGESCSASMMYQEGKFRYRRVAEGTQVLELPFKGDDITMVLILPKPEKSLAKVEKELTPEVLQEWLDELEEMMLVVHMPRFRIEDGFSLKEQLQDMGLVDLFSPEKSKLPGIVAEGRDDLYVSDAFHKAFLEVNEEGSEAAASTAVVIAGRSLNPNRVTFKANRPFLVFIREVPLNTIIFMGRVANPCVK
compound,measurement,setting,value
Nc1ccn([C@@H]2O[C@H](CO)[C@@H](O)C2(F)F)c(=O)n1 [Gemcitabine],Day 1 Average Weight,[1],22.48 g
same,Day 4 Average Weight,[1]; Day 4,21.76 g
same,Day 8 Average Weight,[1]; Day 8,20.91 g
same,Day 11 Average Weight,[1],20.52 g
same,Day 15 Average Weight,[1],21.70 g
same,Day 18 Average Weight,[1]; Day 18,23.15 g
same,Day 22 % Weight Loss or Gain,"[1]; Day 22, vs starting weight",8.59%
same,Day 26 Average Weight,[1]; Table 13 Day 26,24.21 g
same,Day 26 % Weight Loss or Gain,"[1]; Table 13 Day 26, vs starting weight",7.70%
same,Starting Weight,[1],22.48 g
same,Maximum weight loss,[1]; body weight of mice,8.7%
same,Day 4 % Weight Loss or Gain,"[1]; mouse, in vivo",−3.20%
same,Day 8 % Weight Loss or Gain,"[1]; mouse, in vivo",−6.98%
same,Day 11 % Weight Loss or Gain,"[1]; mouse, in vivo",−8.72%
same,Day 15 % Weight Loss or Gain,"[1]; mouse, in vivo",−3.47%
same,Day 18 % Weight Loss or Gain,"[1]; mouse, in vivo",2.98%
same,Day 22 % Weight Loss or Gain,"[1]; mouse, in vivo",7.74%
same,Day 22 Average Weight,"[1]; mouse, in vivo",24.22 g
same,Day 26 % Weight Loss or Gain,"[1]; mouse, in vivo",7.96%
same,Day 26 Average Weight,"[1]; mouse, in vivo",24.27 g
same,Day 30 % Weight Loss or Gain,"[1]; mouse, in vivo",7.61%
same,Day by which the mice recovered their weight,"[1]; mouse, in vivo",≤ 18 days
same,Day on which maximum weight loss was reached,"[1]; mouse, in vivo",11 days
same,Deaths,[1]; [3],0
same,Deaths,"[1]; total deaths on or before Day 36, n = 10 per group",0
same,Difference in tumor weight on Day 26 compared to vehicle control,[2]; [4],No significant difference
same,Difference in tumor weight on Day 36 compared to vehicle control,[2]; [4],No significant difference
same,"Mean tumor weight, Day 1","[2]; Day 1 (randomization), group mean, dosing per Table 1",124.3 mg
same,"Median tumor weight, Day 1","[2]; Day 1 (randomization), group median, dosing per Table 1",121.1 mg
same,"Tumor weight, individual mouse, Day 1","[2]; Day 1 (randomization), individual mouse, dosing per Table 1 (ODSH 24, oxaliplatin 10, gemcitabine 80, nab-paclitaxel 15 mg/kg)",132 mg and 139 mg and 126 mg and 104 mg and 107 mg and 111 mg and 116 mg and 166 mg and 146 mg and 96 mg
same,"Mean tumor weight, Day 4","[2]; Day 4, group mean, dosing per Table 1",152.5 mg
same,"Median tumor weight, Day 4","[2]; Day 4, group median, dosing per Table 1",140.2 mg
same,"Tumor weight, individual mouse, Day 4","[2]; Day 4, individual mouse, dosing per Table 1",189 mg and 214 mg and 126 mg and 122 mg and 131 mg and 133 mg and 146 mg and 176 mg and 155 mg and 135 mg
same,"Mean tumor weight, Day 8","[2]; Day 8, group mean, dosing per Table 1",162.2 mg
same,"Median tumor weight, Day 8","[2]; Day 8, group median, dosing per Table 1",147.4 mg
same,"Tumor weight, individual mouse, Day 8","[2]; Day 8, individual mouse, dosing per Table 1",193 mg and 282 mg and 129 mg and 130 mg and 125 mg and 161 mg and 175 mg and 180 mg and 134 mg
same,"Mean tumor weight, Day 11","[2]; Day 11, group mean, dosing per Table 1",198.2 mg
same,"Median tumor weight, Day 11","[2]; Day 11, group median, dosing per Table 1",191.0 mg
same,"Tumor weight, individual mouse, Day 11","[2]; Day 11, individual mouse, dosing per Table 1",235 mg and 328 mg and 146 mg and 145 mg and 119 mg and 150 mg and 202 mg and 242 mg and 234 mg and 180 mg
same,"Mean tumor weight, Day 15","[2]; Day 15, group mean, dosing per Table 1",263.8 mg
same,"Median tumor weight, Day 15","[2]; Day 15, group median, dosing per Table 1",259.2 mg
same,"Tumor weight, individual mouse, Day 15","[2]; Day 15, individual mouse, dosing per Table 1",319 mg and 375 mg and 211 mg and 218 mg and 181 mg and 228 mg and 245 mg and 288 mg and 300 mg and 274 mg
same,"Mean tumor weight, Day 18","[2]; Day 18, group mean, dosing per Table 1",332.1 mg
same,"Median tumor weight, Day 18","[2]; Day 18, group median, dosing per Table 1",340.1 mg
same,"Tumor weight, individual mouse, Day 18","[2]; Day 18, individual mouse, dosing per Table 1",413 mg and 379 mg and 258 mg and 267 mg and 224 mg and 269 mg and 441 mg and 376 mg and 389 mg and 304 mg
same,"Mean tumor weight, Day 22","[2]; Day 22, group mean, dosing per Table 1",459.4 mg
same,"Median tumor weight, Day 22","[2]; Day 22, group median, dosing per Table 1",451.9 mg
same,"Tumor weight, individual mouse, Day 22","[2]; Day 22, individual mouse, dosing per Table 1",621 mg and 514 mg and 372 mg and 400 mg and 350 mg and 332 mg and 592 mg and 509 mg and 500 mg and 404 mg
same,"Mean tumor weight, Day 26",[2]; [5],594.7 mg
same,"Median tumor weight, Day 26","[2]; Day 26, group median, dosing per Table 1",605.8 mg
same,"Tumor weight, individual mouse, Day 26","[2]; Day 26, individual mouse, dosing per Table 1",797 mg and 739 mg and 468 mg and 534 mg and 431 mg and 389 mg and 730 mg and 628 mg and 647 mg and 583 mg
same,Day 26 Tumor Weight,[2]; Day 26,594.7 ± 43.8 mg
same,"Mean tumor weight, Day 30","[2]; Day 30, group mean of surviving mice, dosing per Table 1",874.3 mg
same,"Median tumor weight, Day 30","[2]; Day 30, group median, dosing per Table 1",858.0 mg
same,"Tumor weight, individual mouse, Day 30","[2]; Day 30, individual mouse, dosing per Table 1","1,121 mg and 1,008 mg and 674 mg and 860 mg and 667 mg and 589 mg and 1,150 mg and 856 mg and 992 mg and 826 mg"
same,"Mean tumor weight, Day 33","[2]; Day 33, group mean of surviving mice, dosing per Table 1","1,044.2 mg"
same,"Median tumor weight, Day 33","[2]; Day 33, group median, dosing per Table 1","1,033.3 mg"
same,"Tumor weight, individual mouse, Day 33","[2]; Day 33, individual mouse, dosing per Table 1","1,367 mg and 1,132 mg and 878 mg and 1,036 mg and 936 mg and 624 mg and 1,275 mg and 1,030 mg and 1,158 mg and 1,008 mg"
same,Day 36 Tumor Weight,"[2]; Day 36, treatment administered until Day 35",1288.8 ± 74.3 mg
same,"Median tumor weight, Day 36","[2]; Day 36, group median, dosing per Table 1","1,306.7 mg"
same,"Tumor weight, individual mouse, Day 36","[2]; Day 36, individual mouse, dosing per Table 1","1,573 mg and 1,368 mg and 963 mg and 1,347 mg and 1,106 mg and 923 mg and 1,596 mg and 1,482 mg and 1,267 mg and 1,265 mg"
same,Day 36 % TGI,"[2]; Day 36 vs Day 1, relative to vehicle control (Group 1), deaths not included",16.8%
O=C1[O][Pt]2([NH][C@@H]3CCCC[C@H]3[NH]2)[O]C1=O [Oxaliplatin],Day 1 Average Weight,[1],20.82 g
same,Day 4 % Weight Loss or Gain,"[1]; Day 4, vs starting weight",−2.02%
same,Day 8 % Weight Loss or Gain,"[1]; Day 8, vs starting weight",−0.82%
same,Day 11 Average Weight,[1],20.12 g
same,Day 15 Average Weight,[1],20.81 g
same,Day 15 % Weight Loss or Gain,"[1]; Day 15, vs starting weight",−0.05%
same,Day 18 % Weight Loss or Gain,"[1]; Day 18, vs starting weight",−1.78%
same,Starting Weight,[1],20.82 g
same,Day bruising of the tails was first observed,"[1]; mouse, in vivo",11 days
same,Mice demonstrating bruising on the tails or abdomen (site of injection),[1]; of ten mice,One mouse
same,Deaths,[1]; [3],0
same,Difference in tumor weight on Day 26 compared to vehicle control,[2]; [4],No significant difference
same,"Mean tumor weight, Day 26",[2]; [5],635.0 mg
same,Day 26 Tumor Weight,[2]; Day 26,635.0 ± 52.3 mg
same,Day 26 % TGI,"[2]; Day 26 vs Day 1, relative to vehicle control (Group 1), deaths not included",8.0% and 8.0 (10/10) %
heparin,Kd,anti-thrombin III,1560 nM
same,Kd for anti-thrombin III,anti-thrombin III,22 µg/mL
